# Assay results as given in patent US7452701B2, “Methods for the preparation of β-amino acids” (Wisconsin Alumni Research Foundation, priority 1998, dated 2008).
# Entries after “also recorded” stand apart in the source; their conditions may differ.
# B1: purified lysine 2,3-aminomutase from Clostridium subterminale SB4 cells: naturally produced Clostridial enzyme, SEQ ID NO: 2 (protein)
# chain: MINRRYELFKDVSDADWNDWRWQVRNRIETVEELKKYIPLTKEEEEGVAQCVKSLRMAITPYYLSLIDPNDPNDPVRKQAIPTALELNKAAADLEDPLHEDTDSPVPGLTHRYPDRVLLLITDMCSMYCRHCTRRRFAGQSDDSMPMERIDKAIDYIRNTPQVRDVLLSGGDALLVSDETLEYIIAKLREIPHVEIVRIGSRTPVVLPQRITPELVNMLKKYHPVWLNTHFNHPNEITEESTRACQLLADAGVPLGNQSVLLRGVNDCVHVMKELVNKLVKIRVRPYYIYQCDLSLGLEHFRTPVSKGIEIIEGLRGHTSGYCVPTFVVDAPGGGGKTPVMPNYVISQSHDKVILRNFEGVITTYSEPINYTPGCNCDVCTGKKKVHKVGVAGLLNGEGMALEPVGLERNKRHVQE
# modifications: Clostridium subterminale
# B2: Bacillus subtilus (SEQ ID NO:9): product of the Bacillus subtilus gene cloned in pET23a(+) and expressed in E. coli BL21 (DE3); tested as cell extract (protein, listed as Bacillus subtilis)
# chain: MKNKWYKPKRHWKEIELWKDVPEEKWNDWLWQLTHTVRTLDDLKKVINLTEDEEEGVRISTKTIPLNITPYYASLMDPDNPRCPVRMQSVPLSEEMHKTKYDLEDPLHEDEDSPVPGLTHRYPDRVLFLVTNQCSMYCRYCTRRRFSGQIGMGVPKKQLDAAIAYIRETPEIRDCLISGGDGLLINDQILEYILKELRSIPHLEVIRIGTRAPVVFPQRITDHLCEILKKYHPVWLNTHFNTSIEMTEESVEACEKLVNAGVPVGNQAVVLAGINDSVPIMKKLMHDLVKIRVRPYYIYQCDLSEGIGHFRAPVSKGLEIIEGLRGHTSGYAVPTFVVDAPGGGGKIALQPNYVLSQSPDKVILRNFEGVITSYPEPENYIPNQADAYFESVFPETADKKEPIGLSAIFADKEVSFTPENVDRIKRREAYIANPEHETLKDRREKRDQLKEKKFLAQQKKQKETECGGDSS
# modifications: CDS (1)..(1413)
# notes: product of the Bacillus subtilus gene cloned in pET23a(+) and expressed in E. coli BL21 (DE3); tested as cell extract
# Assays:
# [1] = biological target: T1, Clostridium subterminale SB4 lysine-2,3-aminomutase (Clostridium subterminale, UniProt Q9XBQ8); assay: EPR spectroscopy of lysine 2,3-aminomutase and coenzymes mixed with L-α-amino acids; format: biochemical; conditions: amino acid in place of L-lysine, frozen, EPR at 77 K
# T1 construct: made in house; host or cells: E. coli BL21(DE3) with pET-23a(+) (lysine 2,3-aminomutase gene) and pAlter-Ex2 (dnaY gene)
# Experimental: FIG. 3 is electron paramagnetic resonance (EPR) spectroscopy of Clostridium subterminale SB4 lysine-2,3-aminomutase in the presence of L-lysine (1), L-aspartate (2), L-glutamate (3), or no substrate (4). Reductively incubated recombinant-produced purified lysine-2,3-aminomutase (18) (75 μM-hexamer) was quickly mixed at 24° C. and frozen (total time<15 sec) at −150° C. with the following components: A) Tris(hydroxymethyl)aminomethane sulfate (Tris-sulfate) 240 mM pH 8.0; B) S-(5′-adenosyl)-L-methionine 1.4 mM; C) sodium hydrosulfite 2.0 mM; D) L-lysine, L-aspartate, or L-glutamate 120 mM. Concentrations listed are final concentrations after mixing. Following freezing, samples were evaluated at 77° K by EPR using a Varian model E3 spectrometer with the following settings: Field center—3250 Gauss; Scan width—200 Gauss; Microwave frequency—9.1 GHz; Microwave power—5 milli Watts; Modulation frequency—100 kHz; Modulation amplitude—1.6 Gauss; Time constant—0.3 sec.; Scan time—240 sec; Gain—125,000.
# FIG. 4 is electron paramagnetic resonance (EPR) spectroscopy of Clostridium subterminale SB4 lysine-2,3-aminomutase in the presence of L-alanine (2), L-alanine+ethylamine (3) L-alanine+propylamine (4), L-lysine (5) and no substrate (1). Conditions as given in FIG. 3 except L-lysine or L-alanine 120 mM; ± ethylamine or propylamine each 0.19 M or no substrate (5).
# FIG. 5 is electron paramagnetic resonance spectroscopy of Clostridium subterminale SB4 lysine-2,3-aminomutase in the presence of L-lysine (1), L-homoserine (2), DL-homocysteine (3), or L-methionine (4). Reductively incubated recombinant-produced purified lysine-2.3-aminomutase (18) (51.4 μM-hexamer) was quickly mixed at 24° C. and frozen (total time<15 sec) at −150° C. with the following components: A) Tris(hydroxymethyl)aminomethane sulfate (Tris-sulfate) 185 mM pH 8.0; B) S-(5′-adenosyl)-L-methionine 1.1 mM; C) sodium hydrosulfite 1.5 mM; D) L-lysine 92 mM, L-homoserine 92 mM, or DL-homocysteine 92 mM, or L-methionine 65 mM. Concentrations listed are final concentrations after mixing. Following freezing, samples were evaluated at 77° K by EPR using a Varian model E3 spectrometer with the following settings: Field center—3250 Gauss; Scan width—200 Gauss; Microwave frequency—9.1 GHz; Microwave power—5 milli Watts; Modulation frequency—100 kHz; Modulation amplitude—1.6 Gauss; Time constant—0.3 sec.; Scan time—240 sec; Gain—250,000. FIG. 4B. 4.6×enlargement of (2), (3), and (4) of FIG. 4A.
# Although lysine 2,3-aminomutase is selective for L-lysine as its substrate, it also catalyzes the 2,3-aminomutation of other L-α-amino acids. A simple and definitive assay for such reaction is the EPR spectrum of a mixture of lysine 2,3-aminomutase with its coenzymes and an L-α-amino acid.
# The spectral envelope is determined by five structural features in the substrate: 1) the L-configuration at the optically active carbon-2, shown as Cα in FIG. 1A; 2) a hydrogen atom bonded to Cα; 3) a carboxyl group bonded to Cα; 4) a nitrogen atom bonded to Cβ; and 5) a hydrogen atom bonded to Cβ. […] The conformation of the radical is determined by the dihedral angles relating the axis of the π-radical orbital to the bonds Cα—H, Cβ—H, and Cβ—N, and these angles determine the nuclear hyperfine splitting in the spectrum and, thereby, the shape of the spectral envelope.
# [2] = biological target: T1, Clostridium subterminale SB4 lysine-2,3-aminomutase; assay: Conversion of L-alanine to β-alanine by lysine 2,3-aminomutase, HPLC of PITC derivatives; format: biochemical; conditions: for effect of amine on generation of β-alanine from L-alanine: amine 0.2 M, L-alanine 0.38 M, 90 min at 37° C.
# Experimental: FIG. 6 is time course of the appearance of the HPLC peak of β-alanine by Clostridium subterminale SB4 lysine 2,3-aminomutase. Reductively incubated recombinant-produced purified lysine-2,3-aminomutase (18) (10 μM-hexamer) was mixed with the following components: A) N-[2-hydroxyethyl-piperazine-N′-[3-propanesulfonic acid] (EPPS) 36 mM pH 8.0, Na salt; B) S-(5′-adenosyl)-L-methionine 390 μM; C) sodium hydrosulfite 3.6 mM; D) L-alanine 380 mM; E) ethylamine 0.20 M pH 8.0. At various time intervals at 37° C., 60 μl of reaction mix was added to 20 μl of 2 N perchloric acid to stop the reaction. Samples were centrifuged at 14,000×g for 10 mm. The supernatants were treated with phenylisothiocyanate (PITC) according to the method of Heinrikson and Meredith (28). The PITC derivative of L-alanine was separated from the β-alanine derivative by HPLC chromatography (28) using a C18 reverse phase column (Beckman Ultrasphere 5μ, 4.6 mm×25 cm, #235329), flow rate 1 ml/min, room temperature. The amino acids were resolved with a complex linear gradient composed of buffer A: 0.05 M ammonium acetate in water and buffer B: 0.1M ammonium acetate in 44% water, 46% acetonitrile, 10% methanol. The gradient established was 0-10% Buffer B in 35 min, then 10-30% Buffer B in 35 min. The PITC derivative of L-alanine elutes at a retention time of 35.0 min whereas the PITC derivative of β-alanine elutes at 26.6 min.
# FIG. 8 is the effect of varying concentrations of L-alanine on the production of β-alanine by Clostridiurn subterminale SB4 lysine 2,3-aminomutase. Experimental conditions as given in FIG. 6 except for the concentration of L-alanine. The concentrations of L-alanine used: 0.05 M (2), 0.11 M (3), 0.20 M (4), and 0.38 M (5). The zero reaction time HPLC elution profile for 0.05 M L-alanine (1) is included. The enzyme was reacted with L-alanine for 90 min at 37° C. prior to stopping with perchloric acid and PITC derivatization.
# FIG. 9 is the potentiating effect of ethyl and propylamines on the generation of β-alanine from L-alanine by Clostridium subterminale SB4 lysine 2,3-aminomutase. […]
# Reductively incubated recombinant-produced purified Clostridium subterminale SB4 lysine-2,3-aminomutase (10 μM-hexamer) was mixed with the following components: 1) EPPS buffer 36 mM pH 8.0, Na salt; 2) S-(5′-adenosyl)-L-methionine 390 μM; 3) sodium hydrosulfite 3.6 mM; 4) L-alanine 380 mM; 5) ethylamine 0.20 M pH 8.0. […] The eluting compounds were detected by spectrophotometry at a wavelength of 254 nm The amino acids were resolved with a complex linear gradient composed of buffer A: 0.05 M ammonium acetate in water and buffer B: 0.1M ammonium acetate in 44% water, 46% acetonitrile, 10% methanol. […]
# [3] = biological target: T2, Clostridial lysine 2,3-aminomutase (Clostridium subterminale, UniProt Q9XBQ8); conditions: purified enzyme from Clostridium subterminale SB4 cells; Lieder et al., Biochemistry 37:2578 (1998); cited from earlier work
# T2 construct: made in house; host or cells: E. coli BL21(DE3) with pET-23a(+) (lysine 2,3-aminomutase gene) and pAlter-Ex2 (dnaY gene)
# [4] = biological target: T3, lysine 2,3-aminomutase (Bacillus subtilis, UniProt O34676); assay: Lysine 2,3-aminomutase activity of extracts of E. coli BL21 (DE3) cells expressing the B. subtilus gene; format: biochemical, Bacillus subtilus; conditions: pET23a(+) construct in E. coli BL21 (DE3), induction with 1 mM IPTG
# T3 construct: made in house; host or cells: E. coli BL21 (DE3), pET23a(+), NdeI/XhoI; cell extract
# Source text: In one instance, the gene from Bacillus subtilus (SEQ ID NO:9) was isolated from chromosomal DNA by PCR generating an oligonucleotide insert which after the appropriate restriction digestion was cloned into the NdeI and XhoI site of pET23a(+) expression vector (Novagen, Inc., Madison, Wis.).
Molecule,EPR spectrum of product-related radical compared with L-lysine [1],further results
NC(CCS)C(=O)O (racemic) [DL-homocysteine],less intense but otherwise essentially indistinguishable from that with L-lysine,–
C[C@H](N)C(=O)O [L-alanine],less intense but otherwise essentially indistinguishable from that with L-lysine,"production of β-alanine from L-alanine ([2]; L-alanine 0.05 M to 0.38 M, ethylamine 0.20 M, 37° C.): β-alanine was produced from L-alanine; also recorded: increased β-alanine with increased substrate (L-alanine) concentration; rate of conversion of L-alanine to β-alanine relative to the rate with 0.2 M ethylamine ([2]; in the absence of ethylamine or propylamine, estimated): about 1/20"
N[C@@H](CC(=O)O)C(=O)O [L-aspartate],less intense but otherwise essentially indistinguishable from that with L-lysine,–
N[C@@H](CCC(=O)O)C(=O)O [L-glutamate],less intense but otherwise essentially indistinguishable from that with L-lysine,–
N[C@@H](CCO)C(=O)O [L-homoserine],less intense but otherwise essentially indistinguishable from that with L-lysine,–
CSCC[C@H](N)C(=O)O [L-methionine],weak but also consistent with expectations for the analogous radical,–
CCCN [Propylamine],–,effect of amine on generation of β-alanine from L-alanine [2]: potentiates the reaction less effectively than ethylamine
CCN [ethylamine],–,effect of amine on generation of β-alanine from L-alanine [2]: potentiated
B1,–,specific activity [3]: 30-40 units/mg
B2,–,"lysine 2,3-aminomutase activity of cell extracts [4]: exhibiting lysine 2,3-aminomutase activity"
